The test system of data set [1] is HCT116, HT29, LoVo and Ls513 (human colorectal cancer cell lines). Kind of data set: Cytotoxicity to Oxaliplatin-sensitive cell lines. The class given is cell-based.
For the next data set, the system named is healthy mice. The note with it: for body weight of mice: dosed every third day. The procedure: In order to find the optimal dosage, we evaluated the effect of different doses of Oxaliplatin and prodrug on the health of healthy mice. In the same dosing way as in the treatment, the mice were dosed every third day, and then the body weight curve was recorded. […] Then ICP-MS was used to detect the concentration of the platinum drug in blood, tumor, liver and kidney respectively.
FIGS. 5 e-h show radiotherapy-driven release of Oxaliplatin for tumor treatment (n=6 mice per group). e, Tumor volume in individual mouse. f, Mean volume of tumors. The prodrug was injected intravenously for a total of 4 injections at a dose of 30 μmol/kg. One hour after intravenous injection, the tumor site in the irradiation group was irradiated with 4 Gy X-rays. Tumor volume in each group was measured every two days for 40 days. g, Survival curves of mice. According to the guidelines of Peking University Animal Ethics Committee, mice were sacrificed when the tumor volume reached 1500 mm^3. h, Body weight curves of mice.

SMILES strings stand for the structures. Like-named read-outs stand apart in the source and are kept apart here.

As for `O=C1[O][Pt]2([NH][C@@H]3CCCC[C@H]3[NH]2)[O]C1=O` [Oxaliplatin], in data set [1], the IC50 result is given as “about submicromolar level”. Besides, in the data set with healthy mice (3 μmol/kg), the “side effects from long-term survival and body weight curves” value was “no apparent side effects”; the “body weight of mice” value is “did not reduce the body weight”. Further, the “body weight of mice” value with healthy mice (30 μmol/kg) is “lost severe weight”. Moreover, in the data set with healthy mice (more than 10 μmol/kg), the “side effects (weight loss)” value is listed as “significant side effects”. The maximum tolerated dose result with healthy mice (nude mice, intravenous injection) was “about 3 μmol/kg”.
